# Data reported in patent US7160989B2, “Antibodies that recognize and bind phosphorylated human androgen receptor and methods of using same” (New York University, priority 2003, dated 2007).
# Experiments:
# P-S213 AR = P-S213 AR (Homo sapiens, UniProt P10275); conditions: 293 cells, wild type AR, treated with R1881; FIG. 3B
# Experimental: Preparation of nuclear and cytoplasmic lysates: Nuclear and cytoplasmic lysates were prepared according to (Lee et al., 1988). Cells (1×10^6 cells) were collected by centrifugation, swelled in a hypotonic buffer, and lysed by extruding the cells through a 25-gauge hypodermic needle. This homogenate was then centrifuged at 14,000 rpm for 5 min to pellet the nuclei, and the supernatant was saved as the cytoplasmic fraction. The proteins were extracted by re-suspension of the nuclear pellet in a high salt buffer and separation of debris by centrifugation. The resulting supernatant was retained as the nuclear fraction.
# To assess the subcellular localization of AR-P-S213, fractionation studies were conducted in the presence of R1881.
# AR S213 phosphorylation = molecular target: T1, AR S213 phosphorylation (Homo sapiens, UniProt P10275); test: Immunoblot of AR S213 phosphorylation in 293 cells transfected with wild type AR; format: cell-based
# T1 sequence (P10275 1-920): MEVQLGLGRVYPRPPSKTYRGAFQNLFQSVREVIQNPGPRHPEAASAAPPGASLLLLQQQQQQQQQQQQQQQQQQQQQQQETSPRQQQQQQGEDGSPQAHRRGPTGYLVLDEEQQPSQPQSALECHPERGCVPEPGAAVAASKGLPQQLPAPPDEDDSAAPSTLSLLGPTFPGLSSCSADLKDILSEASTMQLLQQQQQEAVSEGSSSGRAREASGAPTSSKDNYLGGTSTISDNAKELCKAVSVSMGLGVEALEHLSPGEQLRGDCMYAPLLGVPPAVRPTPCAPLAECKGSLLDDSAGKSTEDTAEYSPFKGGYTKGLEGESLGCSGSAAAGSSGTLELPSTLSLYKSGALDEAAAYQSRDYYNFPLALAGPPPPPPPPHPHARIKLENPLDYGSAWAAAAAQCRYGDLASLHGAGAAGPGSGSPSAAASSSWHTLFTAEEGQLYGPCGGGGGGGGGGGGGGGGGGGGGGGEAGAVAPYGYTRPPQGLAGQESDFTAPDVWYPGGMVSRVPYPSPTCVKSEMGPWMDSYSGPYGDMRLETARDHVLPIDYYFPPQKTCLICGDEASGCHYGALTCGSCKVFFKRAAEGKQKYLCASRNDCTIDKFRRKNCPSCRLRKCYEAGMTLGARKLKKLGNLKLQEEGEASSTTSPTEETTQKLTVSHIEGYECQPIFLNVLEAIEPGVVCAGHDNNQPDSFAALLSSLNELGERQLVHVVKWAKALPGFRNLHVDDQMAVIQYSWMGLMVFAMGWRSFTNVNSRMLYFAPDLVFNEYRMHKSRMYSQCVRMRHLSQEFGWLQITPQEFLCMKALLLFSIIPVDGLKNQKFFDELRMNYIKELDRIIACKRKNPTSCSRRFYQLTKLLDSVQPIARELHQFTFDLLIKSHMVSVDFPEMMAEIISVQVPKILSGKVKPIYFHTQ
# phospho-MAPK (P-MAPK) = test: Immunoblot of phospho-MAPK in transfected 293 cells; format: cell-based, human; conditions: 293 cells treated with IGF-1; FIG. 4B
compound,measurement,setting,value
C[C@]1(O)CC[C@H]2[C@@H]3CCC4=CC(=O)CCC4=C3C=C[C@@]21C [R1881],Sub-cellular localization of P-S213 AR,P-S213 AR,predominantly nuclear
same,AR S213 phosphorylation at 10 nM,AR S213 phosphorylation,robust phosphorylation
same,AR S213 phosphorylation at lower levels,AR S213 phosphorylation,not at lower levels
same,"AR S213 phosphorylation, compound alone",AR S213 phosphorylation,phosphorylated
same,AR phosphorylation by hormone,AR S213 phosphorylation,robust AR phosphorylation
same,Earliest time at which phosphorylation may occur,AR S213 phosphorylation,≥ 10 min
same,Time at which phosphorylation above background is obvious,AR S213 phosphorylation,60 min
IGF-1: growth factor used to treat 293 cells; phosphorylates MAPK,MAPK phosphorylation,phospho-MAPK (P-MAPK),phosphorylated
same,AR phosphorylation with IGF-1 alone,"AR S213 phosphorylation; 293 cells, IGF-1 alone 5 or 10 minutes or 2 hours, absence of R1881, FIG. 4B",does not result in AR phosphorylation
